Assay [1] addresses T1, γ-secretase (cleavage of APP, Aβ42) (Homo sapiens, UniProt P49768).
T1 construct: endogenous in cells; host or cells: HEK AP-GL-T16 luciferase reporter cells (tetracycline-induced APP substrate)
The assay is described as follows: Aβ (1-42) cellular assay (Aβ ELISA, HEK AP-GL-T1 6 cells). Type of assay: cell-based. Conditions: cellular Aβ42 ELISA, 24 h compound treatment. The procedure: Aβ (1-42) Cellular Assay.
The following assay was used to determine the extent to which the compounds of interest inhibit the cleavage of APP in vivo. AβELISA is a commercial fluorometric kit from Biosource (Invitrogen 89344). Luciferase reporter HEK AP-GL-T1 6 cells were plated at 50,000 cells/well in 96 well plates in DMEM media containing 10% tetracyclin free […], 250 μg/mL zeocin, 200 μg/mL hygromycin, and 5 μg/mL blasticidin. Compounds were added 24 h after plating and APP processing is induced simultaneously by addition of tetracycline. Following a 24 h compound treatment, […] of conditioned cell media is collected, mixed with ELISA diluent buffer containing 2 mM AEBSF and 12 mM o-phenanthroline, and immediately frozen at −80° C. For the ELISA, the samples were brought to room temperature and spun at 5000 rpm for 5 min. Samples ([…]) are incubated in the ELISA plate with […] detection antibody on a shaker at room temperature for 3 h. Wells were then washed 4 times with wash buffer and 100 mL of secondary antibody are added and incubated at room temperature for 30 min. Wells were again washed 4 times with wash buffer and 100 mL of fluorescent substrate solution are added. After 30 minutes of incubation, fluorescent signals are determine on a Gemini reader at ex 460 nm and em 560 nm. The amount of Aβ levels in each sample was determined from a standard curve generated by known concentrations of Aβ peptide run simultaneously with the samples.
(In an ELISA, binding on a coated surface is turned into a signal by an enzyme label.)

Assay [2] addresses T2, γ-secretase (Notch cleavage activity) (Homo sapiens, UniProt P49768).
T2 construct: endogenous in cells; host or cells: SUP-T1 cells
The assay is described as follows: Cleaved Notch1 Sandwich ELISA (SUP-T1 cell line). The conditions noted are these: for IC50: SUP-T1 cells, 16 h; for Notch Elisa/Aβ42: ratio Notch Elisa IC50 to Aβ42 IC50. Type of assay: cell-based. The method, then: Cleaved Notch1 Sandwich ELISA.
This assay was used to determine if the compounds of interest inhibit the Notch cleavage activity of γ-secretase in SUP-T1 cell line, which endogenously expresses a truncated Notch receptor fragment that is a viable gamma-secretase substrate. The base medium for this cell line is ATCC-formulated RPMI-1640 Medium with fetal bovine serum to a final concentration of 10%. Prepare dilution of SUP-T1 cells in complete growth medium to 1.0×10^6 cells/mL, seed 1.5 mL per well of each cell dilution into a 6-well plate. Collect cells treated with serial diluted compounds in DMSO after 16 h, then using equal amount of protein isolated from samples to measure Notch intracellular cleavage by PathScan® Sandwich ELISA Kit (Cell Signaling Tech 7194S).

The structures appear in SMILES notation. “And” between values parts separate entries of the source, which are not always exact repeats. Equal entries are not always repeated.

As to `C[C@H](CO)NC(=O)c1ccc(CN(C2CCCC(C(F)(F)F)C2)S(=O)(=O)c2ccc(Cl)nc2)cc1` (stereo partly drawn) [Example 64, 4-((6-Chloro-N-(3-(trifluoromethyl)cyclohexyl)pyridine-3-sulfonamido)methyl)-N—((R)-1-hydroxypropan-2-yl)benzamide], inhibition in assay [1] was half-maximal at 12 nM (IC50). Further, in assay [2], the IC50 came to 1070 nM and the “Notch Elisa/Aβ42” value is reported as 89.

Take `C[C@H](CO)NC(=O)c1ccc(CN(C2CCCCC2F)S(=O)(=O)c2ccc(Cl)nc2)cc1` (stereo partly drawn) [Example 65, 4-((6-Chloro-N-(2-fluorocyclohexyl)pyridine-3-sulfonamido)methyl)-N—((R)-1-hydroxypropan-2-yl)benzamide]: it took 13.7 nM to reach half-maximal inhibition in assay [1] (IC50). In assay [2], the IC50 came out at 1150 nM and the “Notch Elisa/Aβ42” value amounted to 84.

In the case of `O=C(NCCO)c1ccc(CN(C2CCCCC2F)S(=O)(=O)c2ccc(Cl)cc2)cc1` (stereo not drawn) [Example 66, 4-((4-Chloro-N-(2-fluorocyclohexyl)phenylsulfonamido)methyl)-N-(2-hydroxyethyl)benzamide], the IC50 is 10.3 nM in assay [1] and 1380 nM in assay [2]. In assay [2], the “Notch Elisa/Aβ42” value is 134.

In turn, `O=C(O)c1ccc(CN(C2CCCCC2C(F)(F)F)S(=O)(=O)c2ccc(Cl)cc2)cc1` (stereo not drawn) [Example 68, 4-((4-Chloro-N-(2-(trifluoromethyl)cyclohexyl)phenylsulfonamido)methyl)benzoic acid] registered an IC50 in assay [1] of 25.5 nM. In addition, in assay [2], the IC50 came to 830 nM and the “Notch Elisa/Aβ42” value came out at 33.

For `C[C@@H](CO)NC(=O)c1ccc(CN(C2CCCCC2C(F)(F)F)S(=O)(=O)c2ccc(Cl)cc2)cc1` (stereo partly drawn) [Example 69, 4-((4-Chloro-N-(2-(trifluoromethyl)cyclohexyl)phenylsulfonamido)methyl)-N—((S)-1-hydroxypropan-2-yl)benzamide], in assay [1], the IC50 was 2.16 nM. Further, in assay [2], half-maximal inhibition (IC50) required 94 nM and the “Notch Elisa/Aβ42” value is 44.

As to `C[C@H](O)CNC(=O)c1ccc(CN(C2CCCCC2F)S(=O)(=O)c2ccc(Cl)cc2)cc1` (stereo partly drawn) [Example 73, 4-((4-Chloro-N-(2-fluorocyclohexyl)phenylsulfonamido)methyl)-N—((S)-2-hydroxypropyl)benzamide], in assay [1], the IC50 was 10.4 nM. In assay [2], the half-maximal inhibitory concentration (IC50) came out at 1100 nM and the “Notch Elisa/Aβ42” value is recorded as 106.

`CN(C)CCNC(=O)c1ccc(CN(C2CCCCC2F)S(=O)(=O)c2ccc(Cl)cc2)cc1` (stereo not drawn) [Example 74, 4-((4-Chloro-N-(2-fluorocyclohexyl)phenylsulfonamido)methyl)-N-(2-(dimethylamino)ethyl)benzamide] gave an IC50 in assay [1] of 130 nM. Moreover, in assay [2], 10000 nM corresponded to half-maximal inhibition (IC50) and the “Notch Elisa/Aβ42” value is 78.

On to `CN(C)CCNC(=O)c1ccc(CN(C2CCCCC2F)S(=O)(=O)c2ccc(Cl)cc2)cc1.Cl` (stereo not drawn) [Example 75, 4-((4-Chloro-N-(2-fluorocyclohexyl)phenylsulfonamido)methyl)-N-(2-(dimethylamino)ethyl)benzamide hydrochloride], for which the IC50 in assay [1] was 32.8 nM and 70.7 nM; in assay [2], 4140 nM. Besides, the “Notch Elisa/Aβ42” value in assay [2] stood at 80.

With `O=C(O)c1ccc(CN(C2CCCCC2(F)F)S(=O)(=O)c2ccc(Cl)cc2)cc1` (stereo not drawn) [Example 76, 4-((4-Chloro-N-(2,2-difluorocyclohexyl)phenylsulfonamido)methyl)benzoic acid], the IC50 stood at 89.9 nM in assay [1] and 5060 nM in assay [2]. Also, in assay [2], the “Notch Elisa/Aβ42” value came to 56.

In assay [1], `CC1CCCCC1N(Cc1ccc(C#N)cc1)S(=O)(=O)c1ccc(Cl)cc1` (stereo not drawn) [Example 78, 4-Chloro-N-(4-cyanobenzyl)-N-(2-methylcyclohexyl)benzenesulfonamide] showed an IC50 of 14 nM. For the same compound, in assay [2], the midpoint of inhibition, the IC50, lay at 879 nM and the “Notch Elisa/Aβ42” value is given as 63.

The compound `COC(=O)c1ccc(CN([C@@H]2CCCC[C@H]2F)S(=O)(=O)c2ccc(Cl)cc2)cc1` [Example 83, Methyl 4-((4-chloro-N-((1R,2R)-2-fluorocyclohexyl)phenylsulfonamido)methyl)benzoate] came in with a half-inhibitory concentration (IC50) in assay [1] of 44.3 nM. Moreover, in assay [2], it took 1570 nM to reach half-maximal inhibition (IC50) and the “Notch Elisa/Aβ42” value worked out at 35.

As usually defined, the IC50 is the concentration that gives 50% inhibition.

(Values after patent publication US20140243374A1, “Novel Sulfonamides” (The Brigham and Women's Hospital, Inc., priority 2011, published 2014).)
